Reference: patent publication US20230116972A1, “CD38 MODULATORS AND METHODS OF USE THEREOF” (Cytokinetics, Inc., priority 2021, published 2023)

Key:
[1] = biological target: T1, endogenous CD38 in HL60 cells (Homo sapiens, UniProt P28907); experiment: cellular CD38 assay in HL60 cells (cellular NAD levels); format: cell-based; details: all-trans retinoic acid, 24 hours, read-out: hCD38 HL60 ATRA NAD Cell Diaphorase IC50
T1 construct: endogenous in cells; host or cells: HL60 (leukemic cells, treated with all-trans retinoic acid)
T1 sequence (P28907 1-300): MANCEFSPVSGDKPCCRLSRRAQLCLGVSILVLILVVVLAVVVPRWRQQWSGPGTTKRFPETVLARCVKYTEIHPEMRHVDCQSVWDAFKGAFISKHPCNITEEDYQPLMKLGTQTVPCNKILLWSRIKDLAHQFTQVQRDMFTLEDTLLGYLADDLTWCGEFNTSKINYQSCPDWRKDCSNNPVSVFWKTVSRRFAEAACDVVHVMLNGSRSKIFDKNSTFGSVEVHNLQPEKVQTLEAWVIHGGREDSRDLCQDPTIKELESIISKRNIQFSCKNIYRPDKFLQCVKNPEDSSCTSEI
Description: The compounds described herein were also assayed for their ability to inhibit the endogenous CD38 in a native cellular environment in the cellular CD38 assay, which measures the ability of the compound to modulate cellular NAD levels. […] The assays were initiated by plating 20 μL of HL60 cells in culture medium, at a density of 20000 cells per well to a 384-well Corning™ Multiwell Plates. Compounds in DMSO were added to the plates in a volume of 120 nL using the Labcyte Echo Liquid Handlers. […] The plates are then incubated for 24 hours. 50 μL of a readout-solution containing 0.2 U/mL Diaphorase enzyme, 40 uM resazurin, 10 uM FMN, 0.8 U/mL Alcohol dehydrogenase, 3% ethanol, 0.4 mg/mL bovine serum albumin, 0.2% Triton X-100 in 100 mM Tris-HCl, 30 mM EDTA, pH 8.4. The plates were read for fluorescence (Excitation/Emission=540 nm/590 nm) using an EnVision plate reader after 60 mins of incubation at ambient temperature. Note that, in Table 5, the “Compound No” corresponds to the compound numbers in Table 1.

mouse CD38 = biological target: T2, mouse CD38 (Mus musculus, UniProt P56528); experiment: mouse recombinant CD38 enzyme assay (hydrolysis of NAD+); format: biochemical; details: read-out: mCD38 BioChem IC50
T2 sequence (P56528 1-304): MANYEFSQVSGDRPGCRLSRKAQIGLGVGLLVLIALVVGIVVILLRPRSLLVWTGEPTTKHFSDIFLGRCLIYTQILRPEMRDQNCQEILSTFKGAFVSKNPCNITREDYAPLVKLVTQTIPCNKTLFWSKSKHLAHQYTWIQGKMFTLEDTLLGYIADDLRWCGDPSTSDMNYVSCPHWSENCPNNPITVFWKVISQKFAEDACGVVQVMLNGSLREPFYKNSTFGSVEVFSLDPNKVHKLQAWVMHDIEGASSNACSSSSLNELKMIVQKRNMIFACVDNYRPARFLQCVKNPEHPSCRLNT
How it was run: (§1)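 Steps: compound and recombinant enzyme are mixed, NAD+ is added, and the reaction runs 60 min at room temperature. An ADH/ethanol mix containing a CD38 inhibitor halts hydrolysis and forms NADH. After NaOH quench, resazurin plus diaphorase produce fluorescent resorufin, read at 540/590 nm.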

human CD38 = biological target: T3, human CD38 (Homo sapiens, UniProt P28907); experiment: human recombinant CD38 enzyme assay (hydrolysis of NAD+); format: biochemical; details: human recombinant CD38, 0.4 nM enzyme, 62.5 μM NAD+; read-out: hCD38 BioChem IC50
T3 sequence (P28907 1-300): T1 sequence (P28907 1-300)
How it was run: as §1

| SMILES | IC50 [1] [µM] | IC50 (mouse CD38) [µM] | IC50 (human CD38) [µM] |
| --- | --- | --- | --- |
| O=C(Nc1ccccc1F)c1cccc(-n2ccnc2)n1 [Compound 17, N-(2-fluorophenyl)-6-(1H-imidazol-1-yl)picolinamide] | 1.4 | 0.027 | 0.067 |
| CO[C@H]1CC[C@H](NC(=O)c2cc(C(F)(F)F)nc(-n3ccnc3)n2)CC1 [Compound 111, 2-(1H-imidazol-1-yl)-N-((1r,4r)-4-methoxycyclohexyl)-6-(trifluoromethyl)pyrimidine-4-carboxamide] | 5.49 | 0.038 | 0.129 |
| COCCO[C@H]1CC[C@H](NC(=O)c2cc(C)nc(-n3ccnc3)n2)CC1 [Compound 156, 2-(1H-imidazol-1-yl)-N-((1r,4r)-4-(2-methoxyethoxy)cyclohexyl)-6-methylpyrimidine-4-carboxamide] | 2.3 | 0.004 | 0.03 |
| Cn1cncc1-c1ccnc(C(=O)N[C@H]2C[C@H](c3ccccc3)C2)n1 [Compound 213, 4-(1-methyl-1H-imidazol-5-yl)-N-((1r,3r)-3-phenylcyclobutyl)pyrimidine-2-carboxamide] | 1.47 | 0.0091 | 0.0152 |
| O=C(Nc1ccc(C(F)F)nc1)c1cc(C(F)(F)F)nc(-c2cncs2)n1 [Compound 116, N-(6-(difluoromethyl)pyridin-3-yl)-2-(thiazol-5-yl)-6-(trifluoromethyl)pyrimidine-4-carboxamide] | 8.16 | 0.185 | 0.507 |
| Cn1cncc1-c1ccnc(C(=O)NC23CC(C(C)(C)O)(C2)C3)n1 [Compound 294, N-(3-(2-hydroxypropan-2-yl)bicyclo[1.1.1]pentan-1-yl)-4-(1-methyl-1H-imidazol-5-yl)pyrimidine-2-carboxamide] | 4.48 | 0.176 | 0.251 |
| Cc1cc(C(=O)N[C@H]2CC[C@H](C(F)F)CC2)nc(-c2cncn2C)c1 [Compound 99, N-(4-(difluoromethyl)cyclohexyl)-4-methyl-6-(1-methyl-1H-imidazol-5-yl)picolinamide] | 5.13 | 0.007 | 0.08 |
| O=C(Nc1cccnc1)c1cc(-n2ccnc2)ccn1 [Compound 1, 4-(1H-imidazol-1-yl)-N-(pyridin-3-yl)picolinamide] | 2 | 0.358 | 0.243 |
| Cn1cncc1-c1nc(C(=O)N[C@H]2CC[C@H](C(F)F)CC2)cc(C2CCOCC2)n1 [Compound 227, N-((1r,4r)-4-(difluoromethyl)cyclohexyl)-2-(1-methyl-1H-imidazol-5-yl)-6-(tetrahydro-2H-pyran-4-yl)pyrimidine-4-carboxamide] | 2.07 | 0.0024 | 0.0093 |
| Cn1cncc1-c1nc(C(=O)Nc2ccc(C(F)(F)F)nc2)cc(C2CCOCC2)n1 [Compound 198, 2-(1-methyl-1H-imidazol-5-yl)-6-(tetrahydro-2H-pyran-4-yl)-N-(6-(trifluoromethyl)pyridin-3-yl)pyrimidine-4-carboxamide] | 1.13 | 0.001 | 0.0038 |
| Cn1cncc1-c1ccnc(C(=O)N[C@H]2CC[C@H](NCC(F)(F)F)CC2)n1 [Compound 264, 4-(1-methyl-1H-imidazol-5-yl)-N-((1r,4r)-4-((2,2,2-trifluoroethyl)amino)cyclohexyl)pyrimidine-2-carboxamide] | 2.1 | 0.0153 | 0.0409 |
| O=C(Nc1ccc(C(F)F)nc1)c1nc(O)cc(-n2ccnc2)n1 [Compound 216, N-(6-(difluoromethyl)pyridin-3-yl)-4-hydroxy-6-(1H-imidazol-1-yl)pyrimidine-2-carboxamide] | 9.42 | 0.0493 | 0.0666 |

The remaining compounds from weak to strong by IC50 [1], led by results:

| IC50 [1] [µM] | IC50 (mouse CD38) [µM] | IC50 (human CD38) [µM] | SMILES |
| --- | --- | --- | --- |
| 15.7 | 0.205 | 0.479 | O=C(N[C@H]1CC[C@@H](O)CC1)c1cccc(-n2ccnc2)n1 [Compound 31, N-(4-hydroxycyclohexyl)-6-(1H-imidazol-1-yl)picolinamide] |
| 13.7 | 0.228 | 0.313 | Cc1cccc(NC(=O)c2cccc(-n3ccnc3)n2)n1 [Compound 33, 6-(1H-imidazol-1-yl)-N-(6-methylpyridin-2-yl)picolinamide] |
| 4.88 | 0.184 | 0.255 | Cn1cncc1-c1ccnc(C(=O)N[C@H]2CC[C@](O)(c3ccccc3)CC2)n1 [Compound 252, N-((1s,4s)-4-hydroxy-4-phenylcyclohexyl)-4-(1-methyl-1H-imidazol-5-yl)pyrimidine-2-carboxamide] |
| 3.99 | 0.122 | 0.296 | O=C(NC1CCOCC1)c1cccc(-n2ccnc2)n1 [Compound 12, 6-(1H-imidazol-1-yl)-N-(tetrahydro-2H-pyran-4-yl)picolinamide] |
| 3.89 | 0.11 | 0.614 | CO[C@H]1C[C@H](NC(=O)c2cccc(-n3ccnc3)n2)C1 [Compound 23, 6-(1H-imidazol-1-yl)-N-(3-methoxycyclobutyl)picolinamide] |
| 3.28 | 0.0045 | 0.0353 | CO[C@H]1CC[C@H](NC(=O)c2nc(C)cc(-c3cncn3C)n2)CC1 [Compound 191, N-((1r,4r)-4-methoxycyclohexyl)-4-methyl-6-(1-methyl-1H-imidazol-5-yl)pyrimidine-2-carboxamide] |
| 3.19 | 0.0193 | 0.0254 | O=C(Nc1ccc(C(F)(F)F)nc1)c1cc(C2CCOCC2)nc(-n2ccnc2)n1 [Compound 196, 2-(1H-imidazol-1-yl)-6-(tetrahydro-2H-pyran-4-yl)-N-(6-(trifluoromethyl)pyridin-3-yl)pyrimidine-4-carboxamide] |
| 3.15 | 0.001 | 0.011 | Cn1cncc1-c1nc(C(=O)NC2CC3(C2)CC(F)(F)C3)cc(C(F)(F)F)n1 [Compound 154, N-(6,6-difluorospiro[3.3]heptan-2-yl)-2-(1-methyl-1H-imidazol-5-yl)-6-(trifluoromethyl)pyrimidine-4-carboxamide] |
| 3.1 | 0.0391 | 0.0863 | O=C(N[C@H]1CC[C@H](CO)CC1)c1nccc(-n2ccnc2)n1 [Compound 261, N-((1r,4r)-4-(hydroxymethyl)cyclohexyl)-4-(1H-imidazol-1-yl)pyrimidine-2-carboxamide] |
| 2.98 | 0.001 | 0.019 | COCCO[C@H]1CC[C@H](NC(=O)c2cc(C(F)(F)F)nc(-c3cncn3C)n2)CC1 [Compound 165, N-((1r,4r)-4-(2-methoxyethoxy)cyclohexyl)-2-(1-methyl-1H-imidazol-5-yl)-6-(trifluoromethyl)pyrimidine-4-carboxamide] |
| 2.47 | 0.0537 | 0.0719 | Cn1cncc1-c1ccnc(C(=O)N[C@H]2C[C@H](c3ccc(C(F)(F)F)nc3)C2)n1 [Compound 273, 4-(1-methyl-1H-imidazol-5-yl)-N-((1r,3r)-3-(6-(trifluoromethyl)pyridin-3-yl)cyclobutyl)pyrimidine-2-carboxamide] |
| 1.4 | 0.0963 | 0.0354 | O=C(N[C@H]1C[C@H](c2ccnc(C(F)(F)F)c2)C1)c1nccc(-n2ccnc2)n1 [Compound 268, 4-(1H-imidazol-1-yl)-N-((1r,3r)-3-(2-(trifluoromethyl)pyridin-4-yl)cyclobutyl)pyrimidine-2-carboxamide] |
| 1.11 | 0.016 | 0.079 | O=C(NC1CC2(C1)CC(F)(F)C2)c1ccnc(-n2ccnc2)n1 [Compound 78, N-(6,6-difluorospiro[3.3]heptan-2-yl)-2-(1H-imidazol-1-yl)pyrimidine-4-carboxamide] |
| 0.298 | 0.004 | 0.006 | O=C(Nc1ccnc(C(F)F)c1)c1cccc(-n2ccnc2)n1 [Compound 39, N-(2-(difluoromethyl)pyridin-4-yl)-6-(1H-imidazol-1-yl)picolinamide] |
